Measurements reported in patent EP2990408B1, “NOVEL WHITENING AGENT” (Nichirei Biosciences Inc., priority 2013, dated 2014).
Where two headings read alike, the source gives them in different places.

Assays:
[1] = Stability test in aqueous citrate buffer solution (reversed-phase HPLC quantification); format: physicochemical; conditions: for percentages of compounds remaining in the test solutions after storage: 3 weeks, 20 mM citrate buffer solution (pH 6.0), 0.1% (weight/volume)
Description: 3H2P phosphate monoester (1) (not according to the invention) and 3H2P phosphate bisester (2) (according to the invention) in the form of free acid were dissolved in a 20 mM citrate buffer solution (pH 6.0) to a concentration of 0.1% (weight/volume). The test solutions were stored at 4°C, 25°C, or 40°C for 3 weeks. 3H2P phosphate monoester (1) or 3H2P phosphate bisester (2) contained in the stored test solutions were quantitatively analyzed via reversed-phase HPLC (Inertsil® ODS-3, 5 µm, 4.6 × 250 mm, GL Sciences). For comparative example, the similar test was carried out in the manner described above with the use of 3H2P. […]

[2] = test system: tyrosinase; test: Test of tyrosinase activity inhibition (L-DOPA substrate, absorbance at 475 nm); format: biochemical; conditions: Fig. 2; for tyrosinase inhibitory activity compared with 3H2P: at the same concentration as 3H2P; for tyrosinase inhibitory activity: free acid, concentration of 0.1 to 0.5 mg/ml
Description: A solution of 6 mM L-DOPA, an aqueous solution of the test compound adjusted to a given concentration, and a phosphate buffer (pH 6.8) were mixed at a ratio of 2:2:1 by volume. The resulting substrate mixture (1.0 ml) was mixed with 0.2 ml of a solution of 0.017 mg/ml tyrosinase (Sigma), and the enzyme reaction was initiated at 37°C. The absorbance of the enzyme reaction solution was measured at 475 nm 0 and 3 minutes after the initiation of the reaction. The test group subjected to the enzyme reaction in the same manner described above, except that the test compound was not included, was designate as the blank test group. On the basis of the measured absorbance, the inhibition rate of tyrosinase activity was determined using the formula shown below. […] Inhibition rate of tyrosinase activity (%) = (1−(The difference in the absorbance of the test compound in the enzyme reaction solution between 0 minutes and 3 minutes after the initiation of the reaction)/(The difference in the absorbance of the blank in the enzyme reaction solution between 0 min and 3 min)) × 100 [formula]

[3] = test system: Mouse-derived B16 melanoma cells 4A5; test: Test for melanin production inhibition; format: cell-based; conditions: for melanin amount relative to the melanin amount of the control group: concentration of 5 µg/ml, control group = 100, day 6 of culture; for melanin production inhibitory activity: concentrations of 1, 5, and 10 µg/ml, compared with 3H2P and arbutin, Fig. 1; for melanin production inhibitory activity, free acid compared with triethylamine salt: free acid (Fig. 1A) vs triethylamine salt (Fig. 1B)
Description: Mouse-derived B16 melanoma cells 4A5 (RIKEN) were seeded on a 6-well plate with the use of DMEM medium containing 10% FBS to a cell density of 5.0 × 10^4 cells/well (day 0 of culture), and culture was conducted at 37°C in the presence of 5% CO2 for 24 hours. On the following day, the cell-seeded medium was exchanged with a medium supplemented with the test compound at a given concentration (day 1 of culture). The medium was exchanged with a fresh medium every other day from day 2 and thereafter. The cells were recovered via treatment with trypsin on day 6 of culture, and melanin was extracted using an aqueous solution of 1 N sodium hydroxide. The absorbance of the melanin extract was measured at 405 nm, and the melanin amount was determined using a calibration curve prepared with the use of a melanin standard sample. In addition, the protein amount of the cells recovered in the manner described below was determined using the DC Protein Assay Kit (BIO-RAD) and employed as the cell count index. […] In the figure, the melanin amount and the cell count of test groups to which the test compounds had been added are represented relative to the measured melanin amount and cell count of the control group to which no test compound had been added (concentration: 0), which is designated as 100.

stability in weak-acidic to neutral water, compared with non-phosphorylated 3H2P [1] | Structure (SMILES) | tyrosinase inhibitory activity compared with 3H2P [2] | tyrosinase inhibitory activity [2] | melanin amount relative to the melanin amount of the control group [3] | melanin production inhibitory activity [3] | melanin production inhibitory activity, free acid compared with triethylamine salt [3] | percentages of compounds remaining in the test solutions after storage ([1]; 4°C) [%] | percentages of compounds remaining in the test solutions after storage ([1]; 25°C) [%] | percentages of compounds remaining in the test solutions after storage ([1]; 40°C) [%] | stability in weak-acidic to neutral water, compared with non-phosphorylated 3H2P ([1]; summary in words of Table 1)
remarkably improved stability | O=c1occcc1OP(=O)(O)O [3H2P phosphate monoester (1), 3-hydroxy-2-pyrone phosphate monoester] | lower than the tyrosinase inhibitory activity of 3H2P | low tyrosinase inhibitory activity | approximately 50% | slightly lower than that of 3H2P but equivalent to that of arbutin | approximately equivalent melanin production inhibitory activity |  |  |  | 
 | O=c1occcc1O [Compound 3H2P, 3-hydroxy-2-pyrone, reference compound] |  |  |  |  |  | 98.4 | 87.3 | 53.2 | 
 | O=c1occcc1OP(=O)(O)Oc1cccoc1=O [3H2P phosphate bisester (2), 3-hydroxy-2-pyrone phosphate bisester] | lower than the tyrosinase inhibitory activity of 3H2P | low tyrosinase inhibitory activity | approximately 50% | slightly lower than that of 3H2P but equivalent to that of arbutin | approximately equivalent melanin production inhibitory activity | 100 | 100 | 99.3 | remarkably improved stability
